ChEMBL document CHEMBL1201862, “PubChem BioAssay data set” (2004)
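Values below derive from 48-hour exposures of cells grown in 96-well plates, with endpoints linearly interpolated between the two concentrations bracketing the appropriate inhibition level. Here, GI50 denotes the concentration required for 50% inhibition of growth.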 Active and inactive are the calls of the source. Cut-off read from the data, not from the text of the source: active = GI50 up to about 1.1 µM and inactive = higher.

Key:
Experiment in all cases: NCI-60 cell line screen, 48 h
PC-3 = test system: PC-3
TK-10 = test system: TK-10
SNB-19 = test system: SNB-19
EKVX = test system: EKVX
OVCAR-3 = test system: OVCAR-3
LOX IMVI = test system: LOX IMVI
NCI/ADR-RES = test system: NCI/ADR-RES
HCT-116 = test system: HCT-116
CAKI-1 = test system: CAKI-1
SN12C = test system: SN12C
KM12 = test system: KM12
OVCAR-8 = test system: OVCAR-8
Malme-3M = test system: Malme-3M
HL-60 = test system: HL-60
OVCAR-4 = test system: OVCAR-4
HOP-62 = test system: HOP-62
ACHN = test system: ACHN
OVCAR-5 = test system: OVCAR-5
MCF7 = test system: MCF7
NCI-H23 = test system: NCI-H23
UO-31 = test system: UO-31
SF-268 = test system: SF-268
HCC 2998 = test system: HCC 2998
UACC-62 = test system: UACC-62
CCRF-CEM = test system: CCRF-CEM
HOP-92 = test system: HOP-92
NCI-H460 = test system: NCI-H460
SNB-75 = test system: SNB-75
NCI-H522 = test system: NCI-H522
M14 = test system: M14
RPMI-8226 = test system: RPMI-8226
DU-145 = test system: DU-145
IGROV-1 = test system: IGROV-1
MDA-N = test system: MDA-N
BT-549 = test system: BT-549
U-251 = test system: U-251
MDA-MB-435 = test system: MDA-MB-435
HCT-15 = test system: HCT-15
SF-539 = test system: SF-539
T47D = test system: T47D
SK-MEL-5 = test system: SK-MEL-5
MOLT-4 = test system: MOLT-4
Hs-578T = test system: Hs-578T
A498 = test system: A498
HT-29 = test system: HT-29
MDA-MB-231 = test system: MDA-MB-231
SW-620 = test system: SW-620
SK-MEL-2 = test system: SK-MEL-2
SK-MEL-28 = test system: SK-MEL-28
A549 = test system: A549
COLO 205 = test system: COLO 205
786-0 = test system: 786-0
UACC-257 = test system: UACC-257
SF-295 = test system: SF-295
SR = test system: SR

SMILES: C#CCN(Cc1ccc2nc(-c3ccccc3)c(Cl)nc2c1)c1ccc(F)cc1
- GI50 (PC-3): > 100 µM (inactive)
- GI50 (TK-10): > 100 µM (inactive)
- GI50 (SNB-19): > 100 µM (inactive)
- GI50 (EKVX): > 100 µM (inactive)
- GI50 (OVCAR-3): > 100 µM (inactive)
- GI50 (LOX IMVI): > 100 µM (inactive)
- GI50 (NCI/ADR-RES): > 100 µM (inactive)
- GI50 (HCT-116): > 100 µM (inactive)
- GI50 (CAKI-1): > 100 µM (inactive)
- GI50 (SN12C): > 100 µM (inactive)
- GI50 (KM12): > 100 µM (inactive)
- GI50 (OVCAR-8): > 100 µM (inactive)
- GI50 (Malme-3M): > 100 µM (inactive)
- GI50 (HL-60): 15.1 µM (inactive)
- GI50 (OVCAR-4): 59.8 µM (inactive)
- GI50 (HOP-62): > 100 µM (inactive)
- GI50 (ACHN): 71.9 µM (inactive)
- GI50 (OVCAR-5): > 100 µM (inactive)
- GI50 (MCF7): 63.8 µM (inactive)
- GI50 (NCI-H23): 71.6 µM (inactive)
- GI50 (UO-31): 80.7 µM (inactive)
- GI50 (SF-268): > 100 µM (inactive)
- GI50 (HCC 2998): > 100 µM (inactive)
- GI50 (UACC-62): > 100 µM (inactive)
- GI50 (CCRF-CEM): 17.5 µM (inactive)
- GI50 (HOP-92): 47 µM (inactive)
- GI50 (NCI-H460): > 100 µM (inactive)
- GI50 (SNB-75): > 100 µM (inactive)
- GI50 (NCI-H522): 40.6 µM (inactive)
- GI50 (M14): > 100 µM (inactive)
- GI50 (RPMI-8226): 39.7 µM (inactive)
- GI50 (DU-145): 95.7 µM (inactive)
- GI50 (IGROV-1): > 100 µM (inactive)
- GI50 (MDA-N): > 100 µM (inactive)
- GI50 (BT-549): > 100 µM (inactive)
- GI50 (U-251): > 100 µM (inactive)
- GI50 (MDA-MB-435): > 100 µM (inactive)
- GI50 (HCT-15): 87.1 µM
- GI50 (SF-539): > 100 µM (inactive)
- GI50 (T47D): 38 µM (inactive)
- GI50 (SK-MEL-5): 23.1 µM (inactive)
- GI50 (MOLT-4): 0.767 µM (active)
- GI50 (Hs-578T): > 100 µM (inactive)
- GI50 (A498): > 100 µM (inactive)
- GI50 (HT-29): 61.9 µM (inactive)
- GI50 (MDA-MB-231): > 100 µM (inactive)
- GI50 (SW-620): > 100 µM (inactive)
- GI50 (SK-MEL-2): > 100 µM (inactive)
- GI50 (SK-MEL-28): > 100 µM (inactive)
- GI50 (A549): > 100 µM (inactive)
- GI50 (COLO 205): 51.3 µM (inactive)
- GI50 (786-0): > 100 µM (inactive)
- GI50 (UACC-257): > 100 µM (inactive)
- GI50 (SF-295): > 100 µM (inactive)
- GI50 (SR): 45.8 µM (inactive)
